Assay results as given in the METLIN SMRT retention time set (Domingo-Almenara et al. 2019).

assay: gradient 5% acetonitrile 3 min, to 50% in 2 min, to 85% in 15 min, held 3 min, 100 µL/min; conditions: column: Zorbax Extend-C18 2.1 x 50 mm; eluents: water / acetonitrile, 0.1% formic acid
In short: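 The system's dead and dwell volumes were 40 μL and 900 μL, with a Zorbax Extend-C18 column (2.1 × 50 mm, 1.8 μm) run at 100 μL/min in water and acetonitrile containing 0.1% formic acid each. Pure standards were analyzed in mixtures of ~100 molecules by HPLC–quadrupole time-of-flight mass spectrometry in positive and negative ionization mode. Retention time was assigned from computationally picked, manually inspected adduct peaks.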

With `COc1ccc(C(=O)Nc2nc(-c3ccc4c(c3)NC(=O)C(C)O4)c(C)s2)cc1OC` (stereo unspecified) as the molecule, how does the RP-LC retention time read?
Its RP-LC retention time is 867 s.

For `CCCNC(=O)N1CCN(Cc2nc3cccnc3n2-c2ccc(CC)cc2)CC1`, which RP-LC retention time is on record?
Its RP-LC retention time is 641 s.

With `CCc1noc(-c2nc(-c3ccc(OC)c(F)c3)no2)n1` as the molecule, how does the RP-LC retention time read?
The RP-LC retention time was 926 s.

Which RP-LC retention time does the source give for `CC(C)Cc1ccc(-c2csc(NC(=O)c3cnccn3)n2)cc1` here?
The RP-LC retention time was 1130 s.

For `CC(C)c1noc(COC2CCCN(C(=O)NCc3ccccc3)C2)n1` (stereo unspecified), which RP-LC retention time is on record?
The RP-LC retention time was 780 s.

Which RP-LC retention time does the source give for `Cc1cc(C)n(-c2ccnc(N3CCC(C(=O)N4CCN(c5ccccc5)CC4)CC3)n2)n1` here?
The RP-LC retention time was 907 s.

Which RP-LC retention time does the source give for `CC1CCCN(S(=O)(=O)c2ccc(-n3cnc(C(=O)N4CCCC4)c3)nc2)C1` (stereo unspecified) here?
The RP-LC retention time was 817 s.

For `CC1CCN(S(=O)(=O)c2cccc(-c3nnc(-c4ccc(Cl)cc4)o3)c2)CC1`, which RP-LC retention time is on record?
The RP-LC retention time was 1250 s.

For `Cc1cc(=O)n(CC(=O)Nc2ccccc2F)c(N)n1`, which RP-LC retention time is on record?
Its RP-LC retention time is 581 s.

For `Cc1nc(-c2noc(-c3ccncc3)n2)cn1CC(=O)Nc1cccc(Cl)c1`, which RP-LC retention time is on record?
Its RP-LC retention time is 760 s.

Which RP-LC retention time does the source give for `CCCNC(=O)N1CCN(c2nc3ccccc3n(Cc3ccc(C)cc3)c2=O)CC1` here?
Its RP-LC retention time is 978 s.

For `Clc1cccc(-c2nnc(Cc3nc(-c4ccc5c(c4)OCO5)no3)o2)c1`, which RP-LC retention time is on record?
Its RP-LC retention time is 1020 s.

Which RP-LC retention time does the source give for `O=C(Nc1ccc(Br)cc1F)c1cc(-c2cccnc2)n[nH]1` here?
Its RP-LC retention time is 733 s.

For `CC(C)n1nc(CO)c2c1CCN(C(=O)C1COc3ccccc3O1)C2` (stereo unspecified), which RP-LC retention time is on record?
Its RP-LC retention time is 667 s.

For `CC(NC(=O)c1nnc(-c2ccc(S(=O)(=O)N(C)C)cc2)o1)c1ccccc1` (stereo unspecified), which RP-LC retention time is on record?
The RP-LC retention time was 840 s.

With `COc1ccc2cccc(NC(=O)c3c[nH]c4ccccc34)c2n1` as the molecule, how does the RP-LC retention time read?
Its RP-LC retention time is 986 s.

With `Cc1nc(-c2noc(-c3ccccc3)n2)cn1CC(=O)Nc1ccc(Cl)cc1` as the molecule, how does the RP-LC retention time read?
Its RP-LC retention time is 885 s.

With `CCn1cc(CCNC(C)=O)c2cccnc21` as the molecule, how does the RP-LC retention time read?
Its RP-LC retention time is 561 s.

With `C[C@H](NC(=O)Cc1cc(F)cc(F)c1)C(=O)N[C@H]1N=C(c2ccccc2)c2ccccc2N(C)C1=O` as the molecule, how does the RP-LC retention time read?
The RP-LC retention time was 853 s.

Which RP-LC retention time does the source give for `O=C(c1ccc(CS(=O)c2cccc(Cl)c2)o1)N1CCN(c2ccccn2)CC1` (stereo unspecified) here?
Its RP-LC retention time is 602 s.

For `Cc1ccc(S(=O)(=O)N2CCN(c3cnn4c(C)nnc4c3)CC2)cc1`, which RP-LC retention time is on record?
The RP-LC retention time was 679 s.

For `COc1cccc(N2CCN(c3ccc(-c4nc(-c5cccc(F)c5)no4)cn3)CC2)c1`, which RP-LC retention time is on record?
The RP-LC retention time was 1310 s.

Which RP-LC retention time does the source give for `CC1=C(c2ccc(C)cc2)S(=O)(=O)N=C1N1CCC(NC(=O)C2CCC2)CC1` here?
Its RP-LC retention time is 805 s.

For `CCc1ccc(NC(=O)C2CCN(c3c(C(=O)N(CC)CC)cnc4snc(C)c34)CC2)cc1`, which RP-LC retention time is on record?
Its RP-LC retention time is 687 s.

Which RP-LC retention time does the source give for `Cc1ccc(-c2nc(-c3cccc(-c4ccn[nH]4)c3)no2)cc1` here?
The RP-LC retention time was 1090 s.

Which RP-LC retention time does the source give for `CCc1ccc(-c2noc(Cn3c(=O)n(Cc4ccc(OC)cc4)c(=O)c4sccc43)n2)cc1` here?
The RP-LC retention time was 1190 s.

For `O=C(CCn1nnc2cc(S(=O)(=O)N3CCCC3)ccc21)N1CCN(c2ccccn2)CC1`, which RP-LC retention time is on record?
Its RP-LC retention time is 602 s.

With `O=C(c1ccc([N+](=O)[O-])cc1)N(Cc1ccccc1)Cc1ccco1` as the molecule, how does the RP-LC retention time read?
Its RP-LC retention time is 935 s.

With `O=C(Nc1cccc(F)c1)c1c(O)c2cccnc2n(-c2ccccc2)c1=O` as the molecule, how does the RP-LC retention time read?
Its RP-LC retention time is 1230 s.

With `Cc1ccc(CNC(=O)CN2C(=O)C3CCCN3C(=O)c3cccc(C)c32)cc1` (stereo unspecified) as the molecule, how does the RP-LC retention time read?
The RP-LC retention time was 736 s.

Which RP-LC retention time does the source give for `CCNC(=O)c1cn(-c2ccc(SCC(=O)Nc3ccc(Cl)cc3F)nn2)cn1` here?
The RP-LC retention time was 702 s.

For `COCCN1CCn2cc(S(=O)(=O)Nc3ccc(F)c(F)c3)cc2C1=O`, which RP-LC retention time is on record?
Its RP-LC retention time is 733 s.

With `COc1ccc(-c2noc(C3CCCN3C(=O)c3cccc(OC)c3)n2)cc1` (stereo unspecified) as the molecule, how does the RP-LC retention time read?
Its RP-LC retention time is 937 s.

For `COCC(=O)NC1CCC12CCN(C(=O)CC1CCCC1)CC2` (stereo unspecified), which RP-LC retention time is on record?
Its RP-LC retention time is 722 s.

With `CC1=C(c2ccc(C)c(C)c2)S(=O)(=O)N=C1N1CCCN(C(=O)CC(C)C)CC1` as the molecule, how does the RP-LC retention time read?
The RP-LC retention time was 915 s.

With `COc1ccccc1CNC(=O)CN1CCN(Cc2ccccc2)C1=O` as the molecule, how does the RP-LC retention time read?
The RP-LC retention time was 773 s.
